Measured values as given in patent US6528535B2, “Bicyclic inhibitors of protein farnesyl transferase” (Warner-Lambert Company, priority 1997, dated 2003).
Structures can show the parent of a compound that is named as a salt. Where two headings read alike, the source gives them in different places.

Tests used:
[1] = biological target: T1, SF9 affinity purified rat FPT (Rattus norvegicus, UniProt Q02293+Q04631); assay: PFT (farnesyl protein transferase) inhibitory activity, radiolabeled farnesyl pyrophosphate / biotinyl peptide bead assay; format: biochemical; conditions: read-out: FTase, IC50
T1 construct: made in house; host or cells: Sf9 insect cells
Method: The protein:farnesyl transferase (PFT) or farnesyl protein transferase (FPT) inhibitory activity of compounds of the present invention were assayed in HEPES buffer (pH 7.4) containing 5 mM potassium phosphate and 20 μM ZnCl2. The solution also contained 5 mM DTT (dithiothreitol), 5 mM MgCl2, and 0.1% PEG 8000. Assays were performed in 96 well plates (Wallec) and employed solutions composed of varying concentrations of a compound of the present invention in 10% DMSO (dimethylsulfoxide). Upon addition of both substrates, radiolabeled farnesyl pyrophosphate ([1^3H], specific activity 15-30 Ci/mmol, final concentration 134 nM) and (biotinyl)-Ahe-Thr-Lys-Cys-Val-Ile-Met ([3aS[3a alpha, 4 beta, 6a alpha]-hexahydro-2-oxo-1H-thieno[3,4-d]imidazole-5-pentanoic acid]-[7-aminoheptanoic acid]-Thr-Lys-Cys-Val-Ile-Met) (Ahe is 7-aminoheptanoic acid, Thr is threonine, Lys is lysine, Cys is cysteine, Val is valine, Ile is isoleucine, and Met is methionine) (final concentration 0.2 μM), the enzyme reaction was started by addition of SF9 affinity purified rat FPT. After incubation at 30° C. for 30 minutes, the reaction was terminated by diluting the reaction 2.5-fold with a stop buffer containing 1.5 M magnesium acetate, 0.2 M H3PO4, 0.5% BSA (bovine serum albumin), and strepavidin beads (Amersham) at a concentration of 1.3 mg/mL. After allowing the plate to settle for 30 minutes at room temperature, radioactivity was quantitated on a microbeta counter (Model 1450, Wallec). The assay was also carried out without 5 mM potassium phosphate.

[2] = average of two tests unless n is given in parentheses
[3] = Examples 56-74, parallel synthesis array: single test, values adjusted to account for the purity of the sample

Row | SMILES | melting point [°C] | IC50 [1, 2] [nM] | IC50 [1, 3] [nM]
1 | O=C1C(=Cc2ccc(Br)cc2)CCc2cc(OCCn3ccnc3)ccc21 [Example 5, 2-(4-Bromo-benzylidene)-6-(2-imidazole-1-yl-ethoxy)-3,4-dihydro-2H-naphthalen-1-one] | 152 to 153 | 1370 | –
2 | O=C1C(=Cc2ccncc2)CCc2cc(OCCn3ccnc3)ccc21 [Example 6, 6-(2-Imidazole-1-yl-ethoxy)-2-pyridin-4-ylmethylene-3,4-dihydro-2H-naphthalen-1-one] | 128.5 to 129 | 1260 | –
3 | O=C(O)c1ccc(C=C2CCc3cc(OCCn4ccnc4)ccc3C2=O)cc1 [Example 12, 4-[6-(2-Imidazole-1-yl-ethoxy)-1-oxo-3,4-dihydro-1H-naphthalen-2-ylidenemethyl]-benzoic acid] | 267 to 267.5 | 600 | –
4 | O=C1C(=Cc2cccs2)CCc2cc(OCCn3ccnc3)ccc21 [Example 14, 6-(2-Imidazole-1-yl-ethoxy)-2-thiophen-2-ylmethylene-3,4-dihydro-2H-naphthalen-1-one] | 137 to 138 | 89 | –
5 | O=C1C(=Cc2cccc3ccccc23)CCc2cc(OCCn3ccnc3)ccc21 [Example 15, 6-(2-Imidazole-1-yl-ethoxy)-2-naphthalen-1-ylmethylene-3,4-dihydro-2H-naphthalen-1-one] | 147 to 148 | 1300 | –
6 | O=C1C(=Cc2cc(Br)cs2)CCc2cc(OCCn3ccnc3)ccc21 [Example 17, 2-(4-Bromo-thiophen-2-ylmethylene)-6-(2-imidazole-1-yl-ethoxy)-3,4-dihydro-2H-naphthalen-1-one] | 164 to 166 | 100 | –
7 | O=C1C(=Cc2ccc(Cl)s2)CCc2cc(OCCn3ccnc3)ccc21 [Example 18, 2-(5-Chloro-thiophen-2-ylmethylene)-6-(2-imidazole-1-yl-ethoxy)-3,4-dihydro-2H-naphthalen-1-one] | 143 to 144 | 320 | –
8 | CSc1ccc(C=C2CCc3cc(OCCn4ccnc4)ccc3C2=O)s1 [Example 19, 6-(2-Imidazole-1-yl-ethoxy)-2-(5-methylsulfanyl-thiophen-2-ylmethylene)-3,4-dihydro-2H-naphthalen-1-one] | 102 to 104 | 700 | –
9 | O=C1C(=Cc2ccc(-c3cccs3)s2)CCc2cc(OCCn3ccnc3)ccc21 [Example 21, 2-[2,2′]Bithiophenyl-5-ylmethylene-6-(2-imidazole-1-yl-ethoxy)-3,4-dihydro-2H-naphthalen-1-one] | 180 to 181 | 2800 | –
10 | O=C1C(=Cc2ccc([N+](=O)[O-])s2)CCc2cc(OCCn3ccnc3)ccc21 [Example 22, 6-(2-Imidazole-1-yl-ethoxy)-2-(5-nitro-thiophen-2-ylmethylene)-3,4-dihydro-2H-naphthalen-1-one] | > 240 | 370 | –
11 | O=C1C(=Cc2ccsc2)CCc2cc(OCCc3c[nH]cn3)ccc21 [Example 28, 6-[2-(1H-Imidazole-4-yl)-ethoxy]-2-thiophen-3-ylmethylene-3,4-dihydro-2H-naphthalen-1-one] | 94 to 96 | 170 | –
12 | O=C1C(=Cc2cccs2)CCc2cc(OCCc3c[nH]cn3)ccc21 [Example 29, 6-[2-(1H-Imidazole-4-yl)-ethoxy]-2-thiophen-2-ylmethylene-3,4-dihydro-2H-naphthalen-1-one] | 60 to 63 | 88 | –
13 | O=C1C(=Cc2ccccc2)CCc2cc(OCCc3c[nH]cn3)ccc21 [Example 30, 2-Benzylidene-6-[2-(1H-imidazole-4-yl)-ethoxy]-3,4-dihydro-2H-naphthalen-1-one] | 53 to 56 | 890 | –
14 | CSc1ccc(C=C2CCc3cc(OCCc4c[nH]cn4)ccc3C2=O)cc1 [Example 31, 6-[2-(1H-Imidazole-4-yl)-ethoxy]-2-(4-methylsulfanyl-benzylidene)-3,4-dihydro-2H-naphthalen-1-one] | 65 to 70 | 590 | –
15 | CSc1ccc(C=C2CCc3cc(OCCc4c[nH]cn4)ccc3C2=O)s1.Cl [Example 32, 6-[2-(1H-Imidazole-4-yl)-ethoxy]-2-(5-methylsulfanyl-thiophen-2-ylmethylene)-3,4-dihydro-2H-naphthalen-1-one, monohydrochloride] | 168 to 169 | 9100 | –
16 | CC(C)(C)c1ccc(/C=C2\CCc3cc(OCCn4ccnc4)ccc3C2=O)cc1 [Example 72, 2-(E)-1-[4-(tert-Butyl)phenyl]methylidene-6-[2-(1H-1-imidazolyl)ethoxy]-1,2,3,4-tetrahydro-1-naphthalenone] | – | – | 1200
17 | COc1cccc(/C=C2\CCc3cc(OCCn4ccnc4)ccc3C2=O)c1 [Example 73, 6-[2-(1H-1-Imidazolyl)ethoxy]-2-[(E)-1-(3-methoxyphenyl)methylidene]-1,2,3,4-tetrahydro-1-naphthalenone] | – | – | 1140
18 | Cc1cccc(/C=C2\CCc3cc(OCCn4ccnc4)ccc3C2=O)c1 [Example 74, 6-[2-(1H-1-Imidazolyl)ethoxy]-2-[(E)-1-(3-methylphenyl)methylidene]-1,2,3,4-tetrahydro-1-naphthalenone] | – | – | 1890
19 | O=C1C(=Cc2cccs2)CCc2cc(OC(Cn3ccnc3)c3ccccc3)ccc21 (centres unmarked) [Example 81, 6-(2-Imidazol-1-yl-1-phenyl-ethoxy)-2-thiophen-2-ylmethylene-3,4-dihydro-2H-naphthalen-1-one] | – | 37 | –
20 | O=C(CON=C1CCCc2cc(OCCn3ccnc3)ccc21)NCC1(c2ccccc2)CCC1 [Example 82, 2-[6-(2-Imidazol-1-yl-ethoxy)-3,4-dihydro-2H-naphthalen-1-ylideneaminooxy]-N-(1-phenyl-cyclobutylmethyl)-acetamide] | – | 420 | –

The next lines start with the values.

Row | melting point [°C] | IC50 [1, 2] [nM] | IC50 [1, 3] [nM] | SMILES
21 | 170 to 172 | – | – | CC(=C1CCc2cc(OCCc3c[nH]cn3)ccc2C1=O)c1ccccc1 (as salt: HCl) [Example 40, 6-[2-(1H-Imidazole-4-yl)-ethoxy]-2-(1-phenyl-ethylidene)-3,4-dihydro-2H-naphthalen-1-one]
22 | 161 to 161.5 | 78 | – | CSc1ccc(C=C2CCc3cc(OCCn4ccnc4)ccc3C2=O)cc1 [Example 4]
23 | 184 to 185 | 1700 | – | O=C1C(=Cc2ccc([N+](=O)[O-])cc2)CCc2cc(OCCn3ccnc3)ccc21 [Example 7, 6-(2-Imidazole-1-yl-ethoxy)-2-(4-nitro-benzylidene)-3,4-dihydro-2H-naphthalen-1-one]
24 | 114 to 117 | 370 | – | CSc1ccc(CC2CCc3cc(OCCn4ccnc4)ccc3C2=O)cc1 (centres unmarked) [Example 10, 6-(2-Imidazole-1yl-ethoxy)-2-(4-methylsulfanyl-benzyl)-3,4-dihydro-2H-naphthalen-1-one]
25 | 61 to 62 | 120 | – | O=C1C(=Cc2ccsc2)CCc2cc(OCCn3ccnc3)ccc21 [Example 11, 6-(2-Imidazole-1yl-ethoxy)-2-thiophen-3-ylmethylene-3,4-dihydro-2H-naphthalen-1-one]
26 | 129 to 130.5 | 290 | – | O=C1c2ccc(OCCn3ccnc3)cc2CCC1Cc1ccc(Br)cc1 (centres unmarked) [Example 13, 2-(4-Bromo-benzyl)-6-(2-imidazole-1-yl-ethoxy)-3,4-dihydro-2H-naphthalen-1-one]
27 | 109 to 110 | 110 | – | O=C1C(=Cc2ccco2)CCc2cc(OCCn3ccnc3)ccc21 [Example 16, 2-Furan-2-ylmethylene-6-(2-imidazole-1-yl-ethoxy)-3,4-dihydro-2H-naphthalen-1-one]
28 | 135 to 137 | 3100 | – | O=C1C(=Cc2sccc2Oc2ccccc2)CCc2cc(OCCn3ccnc3)ccc21 [Example 20, 6-(2-Imidazole-1-yl-ethoxy)-2-(3-phenoxy-thiophen-2-ylmethylene)-3,4-dihydro-2H-naphthalen-1-one]
29 | 116 to 117 | 1600 | – | O=C1C(=Cc2ccoc2)CCc2cc(OCCn3ccnc3)ccc21 [Example 23, 2-Furan-3-ylmethylene-6-(2-imidazole-1-yl-ethoxy)-3,4-dihydro-2H-naphthalen-1-one]
30 | 132 to 133 | 880 | – | COc1ccc(C=C2CCc3cc(OCCn4ccnc4)ccc3C2=O)cc1 [Example 24, 6-(2-Imidazole-1-yl-ethoxy)-2-(4-methoxy-benzylidene)-3,4-dihydro-2H-naphthalen-1-one]
31 | 211 to 213 | – | – | O=C1/C(=C/c2cccs2)CNc2cc(OCCn3ccnc3)ccc21 [Example 49, 7-[2-(1H-1-Imidazolyl)ethoxy]-3-[(E)-1-(2-thienyl)methylidene]-1,2,3,4-tetrahydro-4-quinolinone]
32 | – | 73 | – | O=C1CCCc2cc(OC(Cn3ccnc3)c3ccccc3)ccc21 (centres unmarked) [Example 80, 6-[2-(1H-1-Imidazolyl)-1-phenylethoxy]-1,2,3,4-tetrahydro-1-naphthalenone]
